Measurements: US6218393A, “Anthranilic acid derivatives as multi drug resistance modulators” (priority 1997, dated 2001)

Key:
AR 1.0 cells [1] = experiment: Drug accumulation assay: daunorubicin accumulation in AR 1.0 cells; type: cell-based; settings: Mus musculus, 100% = accumulation with verapamil 100 μM, 1 hr, 37° C.
Summary of the method: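 AR 1.0 is the MDR-resistant subline of EMT6 mouse mammary carcinoma, grown in RPMI 1640 with 10% foetal calf serum and 2 mM glutamine at 37 °C, 5% CO2. Cells were seeded 48 h before the daunorubicin accumulation assay.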

AR 1.0 cells [2] = experiment: Potentiation of doxorubicin toxicity: proliferation assay (sulphorhodamine B); type: cell-based, mouse
Description: (a) Selected compounds of formula (I) were examined for their ability to potentiate the toxicity of doxorubicin in AR 1.0 cells.

AR 1.0 cells [3] = experiment: Potentiation index with doxorubicin titration; type: cell-based, mouse; settings: for Potentiation Index at RMA concentration 30 nM: Table C2, RMA 30 nM; for Potentiation Index at RMA concentration 100 nM: Table C2, RMA 100 nM; for Potentiation Index at RMA concentration 300 nM: Table C2, RMA 300 nM; for Potentiation Index at RMA concentration 500 nM: Table C2, RMA 500 nM; for Potentiation Index at RMA concentration 10 nM: Table C2, RMA 10 nM
Summary of the method: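 MDR-resistant mouse EMT6 subline AR 1.0 grown four days with a doxorubicin titration (0.263 nM-17.24 μM) plus a fixed compound concentration; proliferation by sulphorhodamine B. Potentiation index derived from doxorubicin IC50 alone versus with compound.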

[4] = Mus musculus, 96 h, compound alone, four day proliferation, read-out: Compound Toxicity (IC50)
[5] = with fixed doxorubicin 0.34 μm, four days, 5760 min, read-out: Toxicity with Cytotoxic Agent (IC50)

| Structure (SMILES) | IC50 (AR 1.0 cells [1]) [nM] | IC50 (AR 1.0 cells [2]; [4]) [nM] | IC50 (AR 1.0 cells [2]; [5]) [nM] | Potentiation Index at RMA concentration 30 nM (AR 1.0 cells [3]) | Potentiation Index at RMA concentration 100 nM (AR 1.0 cells [3]) | Potentiation Index at RMA concentration 300 nM (AR 1.0 cells [3]) | Potentiation Index at RMA concentration 500 nM (AR 1.0 cells [3]) | Potentiation Index at RMA concentration 10 nM (AR 1.0 cells [3]) |
| --- | --- | --- | --- | --- | --- | --- | --- | --- |
| COc1cc2c(cc1OC)CN(CCc1ccc(NC(=O)c3ccccc3NC(=O)c3ccc(Cl)cc3)cc1)CC2 [compound 9496, 2-(4-chloro-benzoylamino)-N-{4-[2-(6,7-dimethoxy-3,4-dihydro-1H-isoquinolin-2-yl)-ethyl]-phenyl}-benzamide] | 480 | 4000 | 30 | 1.6 | 19 | 254 | 825 | – |
| COc1cc2c(cc1OC)CN(CCNC(=O)c1ccccc1NC(=O)c1ccc(C(=O)c3ccccc3)cc1)CC2 [compound 9427, 2-(4-Benzoyl-benzoylamino)-N-[2-(6,7-dimethoxy-3,4-dihydro-1H-isoquinolin-2-yl)-ethyl]-benzamide] | 530 | 10000 | – | – | – | 14 | 32 | – |
| COc1cc2c(cc1OC)CN(CCc1ccc(NC(=O)c3ccccc3NC(=O)c3ccccc3O)cc1)CC2 [compound 9535] | 450 | 2600 | 15 | – | 32 | 128 | – | – |
| COc1cc2c(cc1OC)CN(CCCNC(=O)c1ccccc1NC(=O)c1ccc(C3CCCCC3)cc1)CC2 [compound 9466] | 1400 | 6000 | 50 | – | – | 30 | 60 | – |
| COc1cc2c(cc1OC)CN(CCc1ccc(NC(=O)c3ccccc3NC(=O)c3ccc(C(C)C)cc3)cc1)CC2 [compound 9447, 2-(4-Isopropyl-benzoylamino)-N-{4-[2-(6,7-dimethoxy-3,4-dihydro-1H-isoquinolin-2-yl)-ethyl]-phenyl}-benzamide] | 700 | 6800 | 65 | – | – | 40 | 340 | – |
| COc1cc2c(cc1OC)CN(CCc1ccc(NC(=O)c3ccccc3NC(=O)c3ccncc3)cc1)CC2 [compound 9483, N-(2-{4-[2-(6,7-Dimethoxy-3,4-dihydro-1H-isoquinolin-2-yl)-ethyl]-phenylcarbamoyl}-phenyl}-isonicotinamide] | 1700 | 8500 | 350 | – | – | 14 | 24 | – |
| COc1cc2c(cc1OC)CN(CCNC(=O)c1ccc([N+](=O)[O-])cc1NC(=O)c1ccc(C(C)C)cc1)CC2 [compound 9420, 2-(4-Isopropyl-benzoylamino)-N-[2-(6,7-dimethoxy-3,4-dihydro-1H-isoquinolin-2-yl)-ethyl]-4-nitro-benzamide] | 1900 | 7000 | 400 | – | – | – | 25 | – |
| COc1cc2c(cc1OC)CN(CCNC(=O)c1ccccc1NC(=O)c1ccc(OC3CCCCC3)cc1)CC2 [compound 9459, 2-(4-Cyclohexyloxy-benzoylamino)-N-[2-(6,7-dimethoxy-3,4-dihydro-1H-isoquinolin-2-yl)-ethyl]-benzamide] | 650 | 8500 | 90 | – | – | 45 | 112 | – |
| COc1cc2c(cc1OC)CN(CCNC(=O)c1ccccc1NC(=O)c1ccc(C3CCCCC3)cc1)CC2 [compound 9331, 2-(4-Cyclohexyl-benzoylamino)-N-[2-(6,7-dimethoxy-3,4-dihydro-1H-isoquinolin-2-yl)-ethyl]-benzamide] | 1300 | 7000 | 40 | – | – | 40 | 120 | – |
| COc1cc2c(cc1OC)CN(CCNC(=O)c1cc(Cl)ccc1NC(=O)c1ccc(C(C)C)cc1)CC2 [compound 9354, 2-(4-Isopropyl-benzoylamino)-N-[2-(6,7-dimethoxy-3,4-dihydro-1H-isoquinolin-2-yl)-ethyl]-5-chioro-benzamide] | 600 | 8000 | 150 | – | – | – | 20 | – |
| COc1cc2c(cc1OC)CN(CCNC(=O)c1cc(Br)ccc1NC(=O)c1ccc(C(C)C)cc1)CC2 [compound 9394, 2-(4-Isopropyl-benzoylamino)-N-[2-(6,7-dimethoxy-3,4-dihydro-1H-isoquinolin-2-yl)-ethyl]-5-bromo-benzamide] | 3400 | 10000 | – | – | – | – | 12 | – |

Now those with a lower IC50 (AR 1.0 cells [1]), led by results:

| IC50 (AR 1.0 cells [1]) [nM] | Structure (SMILES) | IC50 (AR 1.0 cells [2]; [4]) [nM] | IC50 (AR 1.0 cells [2]; [5]) [nM] | Potentiation Index at RMA concentration 30 nM (AR 1.0 cells [3]) | Potentiation Index at RMA concentration 100 nM (AR 1.0 cells [3]) | Potentiation Index at RMA concentration 300 nM (AR 1.0 cells [3]) | Potentiation Index at RMA concentration 500 nM (AR 1.0 cells [3]) | Potentiation Index at RMA concentration 10 nM (AR 1.0 cells [3]) |
| --- | --- | --- | --- | --- | --- | --- | --- | --- |
| 190 | COc1cc2c(cc1OC)CN(CCc1ccc(NC(=O)c3ccccc3NC(=O)c3cccc(F)c3)cc1)CC2 [compound 9500, 2-(3-Fluoro-benzoylamino)-N-{4-[2-(6,7-dimethoxy-3,4-dihydro-1H-isoquinolin-2-yl)-ethyl]-phenyl}-benzamide] | 5000 | 9 | 5.5 | 97 | 300 | – | – |
| 20 | COc1cc2c(cc1OC)CN(CCc1ccc(NC(=O)c3ccc([N+](=O)[O-])cc3NC(=O)c3cnc4ccccc4n3)cc1)CC2 [compound 9541, Quinoxaline-2-carboxylic acid (2-{4-(2-(6,7-dimethoxy-3,4-dihydro-1H-isoquinolin-2-yl)-ethyl]-phenylcarbamoyl}-5-nitro-phenyl)-amide] | 860 | 6 | 150 | 160 | 160 | – | 75 |
| 300 | COc1cc2c(cc1OC)CN(CCNC(=O)c1c(Cl)cccc1NC(=O)c1ccc(C(C)C)cc1)CC2 [compound 9405, 2-(4-Isopropyl-benzoylamino)-N-[2-(6,7-dimethoxy-3,4-dihydro-1H-isoquinolin-2-yl)-ethyl]-6-chioro-benzamide] | 22000 | 90 | – | – | – | 8.6 | – |
| 150 | COc1cc2c(cc1OC)CN(CCc1ccc(NC(=O)c3ccccc3NC(=O)c3ccccc3F)cc1)CC2 [compound 9489, 2-(2-Fluoro-benzoylamino)-N-{4-[2-(6,7-dimethoxy-3,4-dihydro-1H-isoquinolin-2-yl)-ethyl]-phenyl}-benzamide] | 7000 | 50 | – | 77 | 192 | 303 | – |
| 15 | COc1cc2c(cc1OC)CN(CCc1ccc(NC(=O)c3ccc([N+](=O)[O-])cc3NC(=O)c3cnc4ccccc4c3)cc1)CC2 [compound 9581, Quinoline-3-carboxylic acid (2-{4-[2-(6,7-dimethoxy-3,4-dihydro-1H-isoquinolin-2-yl)-ethyl]-phenylcarbamoyl}-5-nitro-phenyl)-amide] | 310 | – | 300 | – | – | – | 90 |
| 53 | COc1cc2c(cc1OC)CN(Cc1ccc(NC(=O)c3ccccc3NC(=O)c3cnc4ccccc4n3)cc1)CC2 [compound 9572, Quinoxaline-2-carboxylic acid {2-[4-(6,7-dimethoxy-3,4-dihydro-1H-isoquinolin-2-ylmethyl)-phenylcarbamoyl}-phenyl}-amide] | 1700 | 14 | 25 | 83 | – | – | 2.7 |
| 350 | COc1cc2c(cc1OC)CN(CCc1ccc(NC(=O)c3ccccc3NC(=O)c3ccc4ccccc4c3)cc1)CC2 [compound 9476, Naphthaiene-2-carboxylic acid (2-{4-[2-(6,7-dimethoxy-3,4-dihydro-1H-isoquinolin-2-yl)-ethyl]-phenylcarbamoyl}-phenyl)-amide] | 2000 | – | – | – | 83 | 136 | – |
| 94 | COc1cc2c(cc1OC)CN(CCc1ccc(NC(=O)c3ccc(C)cc3NC(=O)c3cnc4ccccc4c3)cc1)CC2 [compound 9588, Quinoline-3-carboxylic acid (2-{4-[2-(6,7-dimethoxy-3,4-dihydro-1H-isoquinolin-2-yl)-ethyl]-phenylcarbamoyl}-5-methyl-phenyl)-amide] | 6700 | – | 68 | – | – | – | 6 |
| 35 | COc1cc2c(cc1OC)CN(CCc1ccc(NC(=O)c3ccccc3NC(=O)c3cnc4ccccc4n3)cc1)CC2 [compound 9531, Quinoxaline-2-carboxylic. acid (2-{4-[2-(6,7-dimethoxy-3,4-dihydro-1H-isoquinolin-2-yl)-ethyl]-phenylcarbamoyl}-phenyl)-amide] | 1100 | 5 | 120 | 150 | 160 | – | 30 |
| 300 | COc1cc2c(cc1OC)CN(CCc1ccc(NC(=O)c3ccccc3NC(=O)c3ccccc3)cc1)CC2 [compound 9456, 2-Benzoylamino-N-{4-[2-(6,7-dimethoxy-3,4-dihydro-1H-isoquinolin-2-yl)-ethyl]-phenyl}-benzamide] | 5000 | – | – | 112 | – | – | – |
